Measured values taken from patent US20170368082A1, “FORMULATIONS OF BRINCIDOFOVIR” (priority 2016, published 2017).
Marks after values point to notes of the source that are not given here.

Experiment: 28-day intravenous infusion toxicity study with 14-day recovery
Assay type: in vivo, Sprague-Dawley CD rats
Details: for Testicular germ cell depletion, severity: terminal sacrifice
Method: Sprague-Dawley CD® rats (15/sex/group) were administered 0 (2× Sodium Phosphate Buffer Solution), 1, 4 or 15 mg/kg/dose brincidofovir twice per week via 2-hour intravenous infusion on a total of 9 occasions over 29 days. The dose rate was 10 mL/kg/hr for all dose groups. At the end of the treatment phase, up to 10 animals/sex/group were euthanized and necropsied. The remaining animals (up to 5 animals/sex/group) were held for a 14-day recovery phase in order to determine progression or reversibility of any brincidofovir-related effects. Satellite animals (up to 3/sex/group) were similarly dosed and serial blood samples were collected from each animal on Days 1 and 29 for toxicokinetic analysis of brincidofovir and the brincidofovir metabolite (Cidofovir, CDV). Parameters evaluated during the study were: viability, clinical observations, ophthalmology, body weights, food consumption, clinical pathology (termination of dosing and end of recovery), organ weights, macroscopic observations and microscopic pathology.
The test/control item was administered via 2 hours intravenous infusion twice weekly for a total of 9 individual doses over 29 days. Test/control item administration continued through the day prior to terminal necropsy. Recovery animals were held for a 14 day observation period after the last dose.
Animals in extremely poor health or in a possible moribund condition were identified for further monitoring and possible euthanasia.
Observations were made immediately and 2 hours after the completion of dosing for any signs of poor health or toxic or pharmacologic effects (e.g., abnormalities in general condition, appearance, activity, behavior, respiration, etc.).
Blood obtained via the orbital sinus (retrobulbar venous plexus) under light isoflurane anesthesia was used to analyze hematology, coagulation and clinical chemistry parameters for up to 10 toxicity animals/sex/group at the termination of dosing and up to 5 recovery animals/sex/group at the end of recovery. Animals were fasted overnight prior to each blood collection interval.
Necropsy was performed on up to 10 toxicity study animals/sex/group after animals had been treated for 29 days and on up to 5 toxicity study animals/sex/group after a 14 day treatment-free recovery period. Animals were fasted overnight prior to necropsy. Necropsy schedules were established to ensure that examination of animals of both sexes from each group were performed at similar times of the day throughout the necropsy periods.
Complete macroscopic examinations were performed on all animals. The macroscopic examination included examination of the external surface and all orifices; the external surfaces of the brain and spinal cord; the organs and tissues of the cranial, thoracic, abdominal and pelvic cavities and neck; and the remainder of the carcass for the presence of macroscopic morphologic abnormalities.
The tissues listed below were obtained from all animals and preserved. In addition, slides of the indicated tissues were prepared and examined microscopically. Any abnormalities not noted during macroscopic examinations which were seen during histology processing were recorded.
After fixation, the tissues and organs from all animals were routinely processed, embedded in paraffin, cut at a microtome setting of 4-7 microns, mounted on glass slides, stained with hematoxylin and eosin and examined by light microscopy. The bones were decalcified in Decalcifier II™.

[1] = females (2F), 1 mg/kg/dose, 29 day period, 11 tissues examined
[2] = females (3F), 4 mg/kg/dose, 29 day period, 10 tissues examined
[3] = females (4F), 15 mg/kg/dose, 29 day period, 10 tissues examined
[4] = females (4F), 15 mg/kg/dose, following 14-day recovery period, 5 tissues examined
[5] = males (2M), 1 mg/kg/dose, 29 day period, 10 tissues examined
[6] = males (2M), 1 mg/kg/dose, following 14-day recovery period, 5 tissues examined
[7] = males (3M), 4 mg/kg/dose twice weekly, 29 day period, statistically significant
[8] = males (3M), 4 mg/kg/dose, 29 day period, 10 tissues examined
[9] = males (3M), 4 mg/kg/dose, following 14-day recovery period, 5 tissues examined
[10] = males (3M), 4 mg/kg/dose, following 14-day recovery period, statistically significant
[11] = males (4M), 15 mg/kg/dose twice weekly, 29 day period, statistically significant
[12] = males (4M), 15 mg/kg/dose, 29 day period, 10 tissues examined
[13] = males (4M), 15 mg/kg/dose, following 14-day recovery period, 5 tissues examined
[14] = males (4M), 15 mg/kg/dose, following 14-day recovery period, statistically significant

## CCCCCCCCCCCCCCCCOCCCOP(=O)(O)CO[C@H](CO)Cn1ccc(N)nc1=O [Brincidofovir]
1, 4 or 15 mg/kg/dose
  mortality: no brincidofovir-related mortalities
4 and 15 mg/kg/dose, both sexes
  Clinical observations, dosing phase: intermittent clinical signs
females
  No-observed-adverse-effect level (NOAEL): 4 mg/kg/dose
Females 15 mg/kg/dose, Week 3
  Decrease in food consumption vs concurrent controls (to): −9.8%
[1]
  Intestinal tract findings: Total Animals Represented: 0
  Skin findings: Total Animals Represented: 0
Females (2F), 1 mg/kg/dose, following 14-day recovery period, 4 tissues examined
  Bone marrow findings: Total Animals Represented: 0
[2]
  Intestinal tract findings: Total Animals Represented: 9
  Skin findings: Total Animals Represented: 0
  Small intestine: Necrosis, Epithelium, Crypts, Minimal (incidence): 9
Females (3F), 4 mg/kg/dose, following 14-day recovery period, 5 tissues examined
  Bone marrow findings: Total Animals Represented: 0
[3]
  Intestinal tract findings: Total Animals Represented: 9
  Large intestine: Necrosis, Epithelium, glands, Minimal (incidence): 4
  Skin findings: Total Animals Represented: 10
  Skin: Atrophy, Sebaceous Glands, Marked (incidence): 2
  Skin: Atrophy, Sebaceous Glands, Moderate (incidence): 3
  Skin: Atrophy, Sebaceous Glands, Slight (incidence): 5
  Small intestine: Hyperplasia, Epithelium, Crypts, Minimal (incidence): 5
  Small intestine: Necrosis, Epithelium, Crypts, Minimal (incidence): 3
  Small intestine: Necrosis, Epithelium, Crypts, Moderate (incidence): 1
  Small intestine: Necrosis, Epithelium, Crypts, Slight (incidence): 5
[4]
  Bone marrow findings: Total Animals Represented: 2
  Bone marrow: Cellularity, Decreased, Minimal (incidence): 2
females, 15 mg/kg/dose
  Incidence of bone marrow decreased cellularity after recovery: 2/5
[5]
  Intestinal tract findings: Total Animals Represented: 0
  Male reproductive tract findings: Total Animals Represented: 0
  Skin findings: Total Animals Represented: 0
[6]
  Bone marrow findings: Total Animals Represented: 0
  Male reproductive tract findings: Total Animals Represented: 0
Males (3M), 4 mg/kg/dose twice weekly, 29 day period
  Testes weight vs. body weight, % difference relative to controls: −3%
[7]
  Testes absolute weight, % difference relative to controls: −9^a %
  Testes weight vs. brain weight, % difference relative to controls: −9^a %
[8]
  Intestinal tract findings: Total Animals Represented: 9
  Male reproductive tract findings: Total Animals Represented: 10
  Seminal Vesicles: Apoptosis, Epithelial, Minimal (incidence): 4
  Skin findings: Total Animals Represented: 0
  Small intestine: Hyperplasia, Epithelium, Crypts, Minimal (incidence): 5
  Small intestine: Necrosis, Epithelium, Crypts, Minimal (incidence): 8
  Small intestine: Necrosis, Epithelium, Crypts, Slight (incidence): 1
  Testes: Depletion, Germ Cell, Minimal (incidence): 6
  Testes: Depletion, Germ Cell, Slight (incidence): 3
[9]
  Bone marrow findings: Total Animals Represented: 0
  Male reproductive tract findings: Total Animals Represented: 5
  Testes: Depletion, Germ Cell, Minimal (incidence): 1
  Testes: Depletion, Germ Cell, Slight (incidence): 4
[10]
  Testes absolute weight, % difference relative to controls: −21^a %
  Testes weight vs. body weight, % difference relative to controls: −26^a %
  Testes weight vs. brain weight, % difference relative to controls: −18^a %
Males (4M), 15 mg/kg/dose twice weekly, 29 day period
  Epididymides weight vs. body weight, % difference relative to controls: −6%
[11]
  Epididymides absolute weight, % difference relative to controls: −14^a %
  Epididymides weight vs. brain weight, % difference relative to controls: −13^a %
  Testes absolute weight, % difference relative to controls: −24^a %
  Testes weight vs. body weight, % difference relative to controls: −16^a %
  Testes weight vs. brain weight, % difference relative to controls: −22^a %
[12]
  Epididymides: Cell Debris, Luminal, Minimal (incidence): 9
  Intestinal tract findings: Total Animals Represented: 10
  Large intestine: Necrosis, Epithelium, glands, Minimal (incidence): 9
  Male reproductive tract findings: Total Animals Represented: 10
  Seminal Vesicles: Apoptosis, Epithelial, Minimal (incidence): 8
  Seminal Vesicles: Mitotic Figures, Epithelial, Minimal (incidence): 4
  Skin findings: Total Animals Represented: 10
  Skin: Atrophy, Sebaceous Glands, Marked (incidence): 4
  Skin: Atrophy, Sebaceous Glands, Moderate (incidence): 3
  Skin: Atrophy, Sebaceous Glands, Slight (incidence): 3
  Small intestine: Hyperplasia, Epithelium, Crypts, Minimal (incidence): 2
  Small intestine: Necrosis, Epithelium, Crypts, Minimal (incidence): 2
  Small intestine: Necrosis, Epithelium, Crypts, Slight (incidence): 8
  Testes: Depletion, Germ Cell, Moderate (incidence): 5
  Testes: Depletion, Germ Cell, Slight (incidence): 5
[13]
  Bone marrow findings: Total Animals Represented: 3
  Bone marrow: Cellularity, Decreased, Slight (incidence): 3
  Epididymides: Cell Debris, Luminal, Minimal (incidence): 5
  Epididymides: Sperm, Reduced, Luminal, Marked (incidence): 4
  Epididymides: Sperm, Reduced, Luminal, Severe (incidence): 1
  Male reproductive tract findings: Total Animals Represented: 5
  Testes: Depletion, Germ Cell, Marked (incidence): 4
  Testes: Depletion, Germ Cell, Moderate (incidence): 1
[14]
  Testes absolute weight, % difference relative to controls: −42^a %
  Testes weight vs. body weight, % difference relative to controls: −40^a %
  Testes weight vs. brain weight, % difference relative to controls: −41^a %
Males and females 15 mg/kg/dose
  Sebaceous gland atrophy, severity: slight to marked
Males and females ≧4 mg/kg/dose
  Single cell necrosis of crypt epithelium in small intestine, severity: minimal to moderate
Males ≧1 mg/kg/dose, Week 4
  Decrease in food consumption vs concurrent controls (to): −16%
males, 4 mg/kg/dose
  Testicular germ cell depletion, severity: minimal to slight
males, 15 mg/kg/dose
  Incidence of bone marrow decreased cellularity after recovery: 3/5
  Testicular germ cell depletion, severity: slight to moderate
males, twice weekly 2-h IV infusion
  No-observed-adverse-effect level (NOAEL): 1 mg/kg/dose
rat, in vivo
  Diarrhea: none of the animals in the present study experienced diarrhea
  Effects on ophthalmology, body weights, hematology, coagulation, clinical chemistry, urinalysis: no brincidofovir-related effects
  Transaminase elevations: No transaminase elevations were observed
